Test results: patent US12391683B2, “Therapeutic compounds and methods” (Actio Biosciences, Inc., priority 2022, dated 2025)

Target: T1, TRPC5 channels (Homo sapiens, UniProt Q9UL62)
T1 construct: expressed in transfected cells; host or cells: HEK293
T1 sequence (Q9UL62 1-973): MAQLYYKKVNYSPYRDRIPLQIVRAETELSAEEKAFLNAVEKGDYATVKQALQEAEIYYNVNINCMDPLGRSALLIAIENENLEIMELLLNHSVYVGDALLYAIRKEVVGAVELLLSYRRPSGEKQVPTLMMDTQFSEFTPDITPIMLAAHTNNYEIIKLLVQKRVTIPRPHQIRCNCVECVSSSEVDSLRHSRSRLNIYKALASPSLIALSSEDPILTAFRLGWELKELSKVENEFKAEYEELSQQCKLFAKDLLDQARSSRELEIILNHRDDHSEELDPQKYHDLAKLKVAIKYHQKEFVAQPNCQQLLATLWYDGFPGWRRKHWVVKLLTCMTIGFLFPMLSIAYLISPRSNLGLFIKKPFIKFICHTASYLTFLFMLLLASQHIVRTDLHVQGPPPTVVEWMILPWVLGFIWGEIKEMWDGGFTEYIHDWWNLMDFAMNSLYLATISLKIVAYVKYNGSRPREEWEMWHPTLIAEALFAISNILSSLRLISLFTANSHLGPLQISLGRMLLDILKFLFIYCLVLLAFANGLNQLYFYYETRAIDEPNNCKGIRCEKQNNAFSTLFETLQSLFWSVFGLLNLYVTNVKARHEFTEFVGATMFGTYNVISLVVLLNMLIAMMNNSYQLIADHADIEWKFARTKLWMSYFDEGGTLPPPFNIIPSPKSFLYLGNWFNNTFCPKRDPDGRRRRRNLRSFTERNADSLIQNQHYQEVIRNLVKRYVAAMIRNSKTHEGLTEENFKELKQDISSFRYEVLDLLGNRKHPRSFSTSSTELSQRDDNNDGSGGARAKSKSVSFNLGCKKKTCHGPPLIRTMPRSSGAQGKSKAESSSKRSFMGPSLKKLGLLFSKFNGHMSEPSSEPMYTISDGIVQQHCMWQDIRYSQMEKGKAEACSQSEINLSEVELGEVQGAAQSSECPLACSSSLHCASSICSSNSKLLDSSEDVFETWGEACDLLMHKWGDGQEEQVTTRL
Test: TRP Family FLIPR Assay, TRPC5
Format: cell-based
Settings: HEK293 cells
Experimental: The compound of Example 5 was tested for selectivity against a panel of Human TRP family ion channels in a TRP Family FLIPR Assay as described below. • 1. TRPC3 channels (human TRPC3 variant 1 gene, expressed in HEK293 cells). • 2. TRPC4 channels (human TRPC4 gene, expressed in HEK293 cells). • 3. TRPC5 channels (human TRPC5 gene, expressed in HEK293 cells). • 4. TRPC6 channels (human TRPC6 gene, expressed in HEK293 cells). • 5. TRPM2 channels (human TRPM2 gene, transiently expressed in HEK293 cells). • 6. TRPM3 channels (human TRPM3 gene, transiently expressed in HEK293 cells). • 7. TRPM4 channels (human TRPM4 gene, expressed in CHO cells). • 8. […]
Data acquisition was performed via the FLIPR Control software supplied with the FLIPR System (MDS-AT) and data was analyzed using Microsoft Excel (Microsoft Corp., Redmond, WA) or GraphPad Prism. […]
[formula] where Base is the response at low concentrations of test article, Max is the maximum response at high concentrations, xhalf the EC50, or IC50, the concentration of test article producing either half-maximal activation or inhibition, and rate is the Hill coefficient. […] No assumptions about the fit parameters was made; the fit parameters were determined by the algorithm.
The effect of each test article was evaluated at eight (8) concentrations: 0.003, 0.01, 0.03, 0.1, 0.3, 1, 3 and 10 μM, n≤4 wells/concentration). […]

Structure (SMILES): CC(C)(O)c1cnc(N2C[C@@]3(CC[C@@H](F)[C@](C)(Cn4cnc5ccc(C#N)cc54)C3)OC2=O)cn1 (single isomer, unassigned) [Example 5]
- EC50 (agonist mode, vs EMAX of (−)-Englerin A 30 μM, read-out: EC50 hTRPC5): > 10 µM
- IC50 (antagonist mode, activated with 0.5 μM (−)-Englerin A, 0.003-10 μM, read-out: IC50 hTRPC5): > 10 µM
